From patent US20160158179A1, “NANOEMULSION THERAPEUTIC COMPOSITIONS AND METHODS OF USING THE SAME” (THE REGENTS OF THE UNIVERSITY OF MICHIGAN, priority 2008, published 2016)

How the values were obtained:
Burkholderia cenocepacia = experiment: MIC and MBC determination (CLSI, alamar blue), CF isolates
[1] = tested on: Stenotrophomonas maltophilia; experiment: as above
Burkholderia strains = experiment: Checkerboard synergy study (FIC/FBC index); type: cell-based, Burkholderia cenocepacia; conditions: in combination with P4075EC+EDTA
Pseudomonas aeruginosa [2] = experiment: MIC determination, CLSI microdilution with alamar blue; type: cell-based; conditions: Pseudomonas aeruginosa (n = 5); nanoemulsions in the presence of 5 mM EDTA; in µg/mL
Pseudomonas aeruginosa [3] = experiment: MIC and MBC determination (CLSI, alamar blue), CF isolates
Acinetobacter baumannii [4] = experiment: MIC determination, CLSI microdilution with alamar blue; type: cell-based; conditions: Acinetobacter baumannii (n = 5); nanoemulsions in the presence of 5 mM EDTA; in µg/mL
Acinetobacter strains = experiment: Checkerboard synergy study (FIC/FBC index); type: cell-based, Acinetobacter baumannii; conditions: in combination with P4075EC+EDTA
Acinetobacter baumannii [5] = experiment: MIC and MBC determination (CLSI, alamar blue)
[6] = tested on: Stenotrophomonas maltophilia; experiment: MIC determination, CLSI microdilution with alamar blue; type: cell-based; conditions: Stenotrophomonas maltophilia (n = 5); nanoemulsions in the presence of 5 mM EDTA; in µg/mL
Stenotrophomonas strains = experiment: Checkerboard synergy study (FIC/FBC index); type: cell-based, Stenotrophomonas maltophilia; conditions: in combination with P4075EC+EDTA
[7] = share of 10 Burkholderia strains with synergy
[8] = share of 10 Acinetobacter strains with synergy
[9] = share of 10 Stenotrophomonas strains with synergy

## Colistin
Burkholderia cenocepacia; B. cenocepacia
  MBC 90: > 32 µg/mL
  MIC 90: > 32 µg/mL
Burkholderia cenocepacia; Burkholderia
  MBC 50: >32 µg/mL
  MBC 90: >32 µg/mL
  MIC 50: >32 µg/mL
  MIC 90: >32 µg/mL
Burkholderia cenocepacia; CF Burkholderia isolate NB26
  MIC: >32 µg/mL
[1]; S. maltophilia
  MBC 90: > 32 µg/mL
  MIC 90: > 32 µg/mL
[1]; Stenotrophomonas
  MBC 50: >32 µg/mL
  MBC 90: >32 µg/mL
  MIC 50: 16 µg/mL
  MIC 90: >32 µg/mL
Burkholderia strains; Burkholderia
  Overall synergy result: No Interference
Burkholderia strains; isolate NB21
  Synergy (FBC): indifferent
  Synergy (FIC): indifferent
Burkholderia strains; isolate NB22
  Synergy (FBC): indifferent
  Synergy (FIC): indifferent
Burkholderia strains; isolate NB23
  FBC: 2.00
  Synergy (FBC): indifferent
  Synergy (FIC): indifferent
Burkholderia strains; isolate NB24
  FBC: 2.00
  Synergy (FBC): indifferent
  Synergy (FIC): indifferent
Burkholderia strains; isolate NB25
  FBC: 3.00
  FIC: 2.00
  Synergy (FBC): indifferent
  Synergy (FIC): indifferent
Burkholderia strains; isolate NB26
  FBC: 0.04
  FIC: 0.56
  Synergy (FBC): yes
  Synergy (FIC): yes
Burkholderia strains; isolate NB27
  Synergy (FBC): indifferent
  Synergy (FIC): indifferent
Burkholderia strains; isolate NB28b
  FIC: 0.29
  Synergy (FBC): indifferent
  Synergy (FIC): yes
Burkholderia strains; isolate NB29
  Synergy (FBC): indifferent
  Synergy (FIC): indifferent
Burkholderia strains; isolate NB30
  FIC: 0.02
  Synergy (FBC): indifferent
  Synergy (FIC): yes
Burkholderia strains; [7]
  % FBC Synergy: 10%
  % FIC Synergy: 30%
Pseudomonas aeruginosa [2]
  MIC Range: <=0.5-2
Pseudomonas aeruginosa [3]; P. aeruginosa
  MBC 90: 8 µg/mL
  MIC 90: 2 µg/mL
Pseudomonas aeruginosa [3]; Pseudomonas
  MBC 50: 4 µg/mL
  MBC 90: 8 µg/mL
  MIC 50: 2 µg/mL
  MIC 90: 2 µg/mL
Acinetobacter baumannii [4]
  MIC Range: <=0.5-2
Acinetobacter strains; Acinetobacter
  Overall synergy result: No Interference
Acinetobacter strains; isolate NB31
  FIC: 0.83
  Synergy (FBC): indifferent
  Synergy (FIC): indifferent
Acinetobacter strains; isolate NB32
  FIC: 0.58
  Synergy (FBC): indifferent
  Synergy (FIC): indifferent
Acinetobacter strains; isolate NB33
  FBC: 2
  FIC: 0.33
  Synergy (FBC): indifferent
  Synergy (FIC): yes
Acinetobacter strains; isolate NB34
  FBC: 1.10
  FIC: 0.46
  Synergy (FBC): indifferent
  Synergy (FIC): yes
Acinetobacter strains; isolate NB35
  FBC: 0.97
  FIC: 0.72
  Synergy (FBC): indifferent
  Synergy (FIC): indifferent
Acinetobacter strains; isolate NB36
  FBC: 2
  FIC: 0.56
  Synergy (FBC): indifferent
  Synergy (FIC): indifferent
Acinetobacter strains; isolate NB37
  FBC: 1.00
  FIC: 0.63
  Synergy (FBC): indifferent
  Synergy (FIC): indifferent
Acinetobacter strains; isolate NB38
  FBC: 0.68
  FIC: 0.77
  Synergy (FBC): indifferent
  Synergy (FIC): indifferent
Acinetobacter strains; isolate NB39
  FIC: 0.72
  Synergy (FBC): indifferent
  Synergy (FIC): indifferent
Acinetobacter strains; isolate NB40
  FBC: 0.91
  FIC: 0.63
  Synergy (FBC): indifferent
  Synergy (FIC): indifferent
Acinetobacter strains; [8]
  % FBC Synergy: 0%
  % FIC Synergy: 20%
Acinetobacter baumannii [5]; 10 CF Acinetobacter isolates
  MBC 50: 4 µg/mL
  MBC 90: >16 µg/mL
  MIC 50: 1 µg/mL
  MIC 90: 1 µg/mL
Acinetobacter baumannii [5]; A. baumannii
  MBC 90: > 16 µg/mL
  MIC 90: 1 µg/mL
Acinetobacter baumannii [5]; Acinetobacter
  MBC 50: 4 µg/mL
  MBC 90: >16 µg/mL
  MIC 50: 1 µg/mL
  MIC 90: 1 µg/mL
[6]
  MIC Range: <=0.5-1
Stenotrophomonas strains; Stenotrophomonas
  Overall synergy result: Synergy
Stenotrophomonas strains; isolate NB42
  FIC: 0.08
  Synergy (FBC): indifferent
  Synergy (FIC): yes
Stenotrophomonas strains; isolate NB43
  FBC: 0.15
  FIC: 0.08
  Synergy (FBC): yes
  Synergy (FIC): yes
Stenotrophomonas strains; isolate NB44
  FBC: 0.57
  Synergy (FBC): indifferent
  Synergy (FIC): indifferent
Stenotrophomonas strains; isolate NB45
  FBC: 0.45
  FIC: 0.04
  Synergy (FBC): yes
  Synergy (FIC): yes
Stenotrophomonas strains; isolate Steno 1
  Synergy (FBC): yes and indifferent
  Synergy (FIC): yes and indifferent
Stenotrophomonas strains; isolate Steno 2
  Synergy (FBC): yes and indifferent
  Synergy (FIC): yes
Stenotrophomonas strains; isolate Steno 3
  Synergy (FBC): yes and indifferent
  Synergy (FIC): yes and indifferent
Stenotrophomonas strains; isolate Steno 4
  FBC: 1.61
  Synergy (FBC): indifferent
  Synergy (FIC): yes and indifferent
Stenotrophomonas strains; isolate Steno 6
  Synergy (FBC): yes and indifferent
  Synergy (FIC): yes and indifferent
Stenotrophomonas strains; isolate Steno 8
  Synergy (FBC): yes and indifferent
  Synergy (FIC): yes and indifferent
Stenotrophomonas strains; [9]
  % FBC Synergy: 70%
  % FIC Synergy: 90%
